Results published in patent US9227977B2, “Phosphoinositide 3-kinase inhibitors” (RESPIVERT LTD., priority 2013, dated 2016).
Read-outs that look alike come from different tables or passages of the source.

How the values were obtained:
[1] = tested on: LPS-induced airway neutrophilia in rats; assay: LPS-induced airway neutrophil accumulation in rats; format: in vivo, rat; settings: i-t; for Neutrophil numbers in BALF: mean ± SEM
Description: Non-fasted rats were dosed with either vehicle or the test compound by intra-tracheal administration (dose volume 100 μL) at time points T=−2 h, −8 h, or −12 h with respect to the start of LPS treatment. The LPS solution (0.3 mg/mL) was aerosolised using a De Vibliss ultrasonic nebuliser 2000 (7 mL during 30 min). At eight hr after LPS challenge, the trachea was cannulated and bronchoalveolar lavage fluid (BALF) extracted by infusing and then withdrawing PBS (1 mL) into the lungs via the tracheal catheter. This procedure was repeated to provide approximately 2 mL of lavage fluid.
Total cell numbers in the BALF samples were measured using a Countess automated cell counter (Invitrogen). Cytospin smears of the BALF samples were prepared by centrifugation at 1200 rpm for 2 min at RT and stained using a DiffQuik stain system (Dade Behring) for differential cell counts. Cells were counted using oil immersion microscopy. Data are expressed as neutrophil number of cells per mL of BALF (mean±S.E.M).

[2] = molecular target: PI3K γ (Homo sapiens (Human), UniProt P48736); assay: PI3K enzyme inhibition assay (HTRF TR-FRET); format: biochemical
Chain of PI3K γ (P48736 whole entry, species assumed): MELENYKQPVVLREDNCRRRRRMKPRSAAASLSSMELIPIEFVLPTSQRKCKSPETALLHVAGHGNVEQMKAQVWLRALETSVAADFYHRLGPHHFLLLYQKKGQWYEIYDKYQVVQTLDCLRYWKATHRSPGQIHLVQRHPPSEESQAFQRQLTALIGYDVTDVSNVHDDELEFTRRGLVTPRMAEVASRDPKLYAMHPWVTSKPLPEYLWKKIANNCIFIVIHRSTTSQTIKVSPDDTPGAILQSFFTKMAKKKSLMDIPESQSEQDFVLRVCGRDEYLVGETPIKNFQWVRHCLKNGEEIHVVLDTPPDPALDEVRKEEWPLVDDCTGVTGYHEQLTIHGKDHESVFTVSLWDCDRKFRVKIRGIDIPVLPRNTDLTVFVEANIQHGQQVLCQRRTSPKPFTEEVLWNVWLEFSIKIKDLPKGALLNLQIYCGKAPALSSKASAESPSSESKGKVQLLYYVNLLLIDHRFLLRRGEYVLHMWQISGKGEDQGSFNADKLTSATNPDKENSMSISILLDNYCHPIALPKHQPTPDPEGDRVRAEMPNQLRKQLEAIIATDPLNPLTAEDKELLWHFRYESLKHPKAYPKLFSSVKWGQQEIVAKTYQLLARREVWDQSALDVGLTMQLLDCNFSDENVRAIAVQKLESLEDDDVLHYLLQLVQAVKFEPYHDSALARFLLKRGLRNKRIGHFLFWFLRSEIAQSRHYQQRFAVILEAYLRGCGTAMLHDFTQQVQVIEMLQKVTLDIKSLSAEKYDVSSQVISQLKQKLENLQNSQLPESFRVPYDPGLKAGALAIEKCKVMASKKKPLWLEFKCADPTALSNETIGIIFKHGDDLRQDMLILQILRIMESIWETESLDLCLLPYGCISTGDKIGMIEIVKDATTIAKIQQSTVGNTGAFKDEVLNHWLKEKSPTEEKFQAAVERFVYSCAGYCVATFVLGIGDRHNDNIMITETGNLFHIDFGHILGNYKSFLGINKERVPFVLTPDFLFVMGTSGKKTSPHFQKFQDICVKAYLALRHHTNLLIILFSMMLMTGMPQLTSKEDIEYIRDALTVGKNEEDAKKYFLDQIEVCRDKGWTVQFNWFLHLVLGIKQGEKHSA
Chain of PI3K γ (Q8WYR1 whole entry partner, species assumed): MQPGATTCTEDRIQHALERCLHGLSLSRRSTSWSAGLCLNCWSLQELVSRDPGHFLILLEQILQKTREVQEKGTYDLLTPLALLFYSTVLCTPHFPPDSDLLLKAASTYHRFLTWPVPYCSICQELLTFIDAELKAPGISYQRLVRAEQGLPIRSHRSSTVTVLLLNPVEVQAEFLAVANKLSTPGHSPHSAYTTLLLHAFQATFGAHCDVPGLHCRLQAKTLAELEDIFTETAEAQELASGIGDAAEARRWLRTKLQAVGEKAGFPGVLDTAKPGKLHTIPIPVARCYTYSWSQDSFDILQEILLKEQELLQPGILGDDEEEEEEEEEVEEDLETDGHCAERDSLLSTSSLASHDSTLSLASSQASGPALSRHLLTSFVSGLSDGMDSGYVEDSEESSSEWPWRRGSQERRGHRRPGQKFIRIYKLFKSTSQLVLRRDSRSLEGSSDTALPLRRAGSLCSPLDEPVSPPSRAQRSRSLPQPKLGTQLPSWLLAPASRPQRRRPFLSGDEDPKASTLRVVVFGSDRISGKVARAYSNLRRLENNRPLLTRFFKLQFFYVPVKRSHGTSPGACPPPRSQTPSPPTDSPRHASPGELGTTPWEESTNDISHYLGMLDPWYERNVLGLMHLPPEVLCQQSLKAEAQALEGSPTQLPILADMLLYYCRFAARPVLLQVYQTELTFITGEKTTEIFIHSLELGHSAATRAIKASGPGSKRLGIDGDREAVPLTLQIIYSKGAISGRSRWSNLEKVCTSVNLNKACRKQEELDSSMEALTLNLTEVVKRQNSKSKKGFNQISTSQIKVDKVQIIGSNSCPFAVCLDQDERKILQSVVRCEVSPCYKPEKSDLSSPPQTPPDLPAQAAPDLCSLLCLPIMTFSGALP
From the text: (§1) The PI3K enzymes catalyse the phosphorylation of phosphatidylinositol 4,5-biphosphate (PIP2) to phosphatidylinositol 3,4,5-triphosphate (PIP3) in the presence of ATP and Mg^2+ ions. The PIP3 product can be detected by displacement of biotin-PIP3 from energy transfer complexes consisting of europium labelled anti-GST monoclonal antibody, a GST-tagged Pleckstrin homology (PH) domain, biotinylated PIP3 and streptavidin-allophycocyanin (APC) by the time-resolved fluorescence resonance energy transfer (TR-FRET) (HTRF®PI3K enzyme assay, Millipore). Excitation, at 330 nm, of europium in the complex results in an energy transfer to the APC and a fluorescent emission at 665 nm although europium itself emits at its characteristic wavelength of 620 nm. The PIP3 product formed by PI3K activity displaces biotin-PIP3 from the complex and results in a loss of energy transfer (decreasing signal).
(§2) The compound to be tested was added, at the desired final concentrations, to a mixture of PIP2 substrate and a recombinant PI3K enzyme (either α, β or δ isoforms, ex Millipore, or γ isoform [p110γ+p101 construct], ex United States Biological, Swampscott, Mass.) and the mixture incubated for 2 hr at RT. […] A stopping solution containing biotinylated PIP3 and the detection mix containing the GST tagged GRP1 pleckstrin homology (PH) domain and fluorophores were then added and the mixture was incubated at RT for 15-18 hr, prior to detection in a fluorescence microplate reader (Synergy 4, BioTek UK, Bedfordshire, UK).
(§3) The results were calculated according to the formula: APC signal (emission at 665 nm)/europium signal (emission at 620 nm)×10^4.

[3] = molecular target: PI3K α (Homo sapiens (Human), UniProt P42336); assay: PI3K enzyme inhibition assay (HTRF TR-FRET); format: biochemical
Chain of PI3K α (P42336 whole entry, species assumed): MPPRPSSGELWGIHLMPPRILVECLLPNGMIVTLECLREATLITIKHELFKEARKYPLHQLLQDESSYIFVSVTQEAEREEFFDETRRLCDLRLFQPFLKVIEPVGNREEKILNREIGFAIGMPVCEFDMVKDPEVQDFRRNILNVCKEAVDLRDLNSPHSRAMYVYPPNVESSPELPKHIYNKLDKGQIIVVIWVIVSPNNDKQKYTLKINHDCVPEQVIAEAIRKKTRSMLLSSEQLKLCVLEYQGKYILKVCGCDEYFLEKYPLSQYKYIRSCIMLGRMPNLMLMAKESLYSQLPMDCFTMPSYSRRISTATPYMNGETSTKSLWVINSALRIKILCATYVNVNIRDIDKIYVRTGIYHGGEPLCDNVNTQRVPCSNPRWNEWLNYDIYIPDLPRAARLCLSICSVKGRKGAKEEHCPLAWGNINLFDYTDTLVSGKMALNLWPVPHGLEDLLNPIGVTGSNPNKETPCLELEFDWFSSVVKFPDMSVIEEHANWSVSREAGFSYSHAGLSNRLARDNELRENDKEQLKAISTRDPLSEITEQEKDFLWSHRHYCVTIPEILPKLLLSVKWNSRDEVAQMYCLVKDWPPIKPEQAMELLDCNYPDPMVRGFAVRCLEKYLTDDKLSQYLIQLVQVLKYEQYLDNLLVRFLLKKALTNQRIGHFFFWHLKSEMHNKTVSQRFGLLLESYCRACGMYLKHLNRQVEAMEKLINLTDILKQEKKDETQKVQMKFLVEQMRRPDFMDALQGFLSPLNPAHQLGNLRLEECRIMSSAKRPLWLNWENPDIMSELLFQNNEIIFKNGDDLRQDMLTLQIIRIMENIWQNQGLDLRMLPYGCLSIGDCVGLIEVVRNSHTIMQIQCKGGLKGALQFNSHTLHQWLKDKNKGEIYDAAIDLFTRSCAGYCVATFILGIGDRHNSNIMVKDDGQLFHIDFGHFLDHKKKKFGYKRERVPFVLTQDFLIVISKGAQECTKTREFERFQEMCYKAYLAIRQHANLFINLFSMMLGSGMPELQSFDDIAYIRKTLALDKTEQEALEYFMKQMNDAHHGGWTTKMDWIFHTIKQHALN
Chain of PI3K α (P27986 whole entry partner, species assumed): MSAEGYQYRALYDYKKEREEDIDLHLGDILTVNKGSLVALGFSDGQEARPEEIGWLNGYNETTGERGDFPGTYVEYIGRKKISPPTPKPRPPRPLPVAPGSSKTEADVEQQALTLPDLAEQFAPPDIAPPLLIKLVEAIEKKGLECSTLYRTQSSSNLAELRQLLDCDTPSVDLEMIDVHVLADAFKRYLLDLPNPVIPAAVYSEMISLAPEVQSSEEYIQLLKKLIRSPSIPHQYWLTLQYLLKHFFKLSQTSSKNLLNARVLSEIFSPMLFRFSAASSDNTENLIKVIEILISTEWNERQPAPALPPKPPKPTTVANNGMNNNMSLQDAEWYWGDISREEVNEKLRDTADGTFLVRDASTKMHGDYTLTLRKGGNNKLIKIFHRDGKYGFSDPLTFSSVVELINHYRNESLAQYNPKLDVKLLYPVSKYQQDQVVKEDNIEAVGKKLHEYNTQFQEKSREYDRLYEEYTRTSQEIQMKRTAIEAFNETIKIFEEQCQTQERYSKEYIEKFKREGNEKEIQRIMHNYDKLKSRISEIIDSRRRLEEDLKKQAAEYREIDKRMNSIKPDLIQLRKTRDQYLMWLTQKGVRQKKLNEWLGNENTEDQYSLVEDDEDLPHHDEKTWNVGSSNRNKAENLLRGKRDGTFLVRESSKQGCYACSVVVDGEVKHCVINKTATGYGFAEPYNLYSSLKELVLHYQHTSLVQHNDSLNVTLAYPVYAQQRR
From the text: as §1, §2, §3

[4] = molecular target: PI3K δ (Homo sapiens (Human), UniProt O00329); assay: PI3K enzyme inhibition assay (HTRF TR-FRET); format: biochemical
Chain of PI3K δ (O00329 whole entry, species assumed): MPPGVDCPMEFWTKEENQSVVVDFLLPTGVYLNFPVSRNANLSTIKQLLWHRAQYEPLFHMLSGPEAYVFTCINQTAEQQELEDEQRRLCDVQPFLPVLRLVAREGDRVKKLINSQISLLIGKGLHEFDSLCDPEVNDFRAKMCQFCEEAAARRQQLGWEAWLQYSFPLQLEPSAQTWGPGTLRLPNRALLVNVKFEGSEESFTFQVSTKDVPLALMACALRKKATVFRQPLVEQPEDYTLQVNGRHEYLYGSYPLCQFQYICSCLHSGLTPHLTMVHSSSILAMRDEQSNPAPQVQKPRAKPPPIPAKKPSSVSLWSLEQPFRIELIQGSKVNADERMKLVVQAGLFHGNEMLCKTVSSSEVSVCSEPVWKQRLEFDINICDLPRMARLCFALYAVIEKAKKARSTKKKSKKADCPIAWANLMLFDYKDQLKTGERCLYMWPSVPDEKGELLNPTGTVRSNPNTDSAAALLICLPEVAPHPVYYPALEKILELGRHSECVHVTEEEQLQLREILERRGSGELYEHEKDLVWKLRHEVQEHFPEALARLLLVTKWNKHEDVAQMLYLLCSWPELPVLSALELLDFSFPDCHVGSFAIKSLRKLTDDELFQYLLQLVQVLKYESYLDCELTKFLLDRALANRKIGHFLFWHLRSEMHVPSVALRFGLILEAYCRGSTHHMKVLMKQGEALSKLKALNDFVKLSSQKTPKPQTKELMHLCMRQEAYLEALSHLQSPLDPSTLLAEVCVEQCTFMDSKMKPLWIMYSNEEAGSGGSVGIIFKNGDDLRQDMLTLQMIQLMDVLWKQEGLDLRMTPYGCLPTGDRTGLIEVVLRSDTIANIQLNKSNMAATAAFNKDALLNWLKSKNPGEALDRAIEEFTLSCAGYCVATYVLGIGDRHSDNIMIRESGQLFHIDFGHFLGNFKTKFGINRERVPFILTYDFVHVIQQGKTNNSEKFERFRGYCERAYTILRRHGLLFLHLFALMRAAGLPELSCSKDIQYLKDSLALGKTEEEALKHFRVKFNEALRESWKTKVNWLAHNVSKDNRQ
Chain of PI3K δ (P27986 whole entry partner, species assumed): as the sequence (P27986 whole entry partner, species assumed) above
From the text: as §1, §2, §3

[5] = tested on: ovalbumin-induced airway eosinophilia and neutrophilia in mice; assay: Ovalbumin-induced airway eosinophil and neutrophil accumulation in mice; format: in vivo, mouse; settings: OVA-sensitized mice, i-t; for Cell numbers in BALF, Eosinophils / Cell numbers in BALF, Neutrophils: mean ± SEM
Description: BALB/c mice (6-8 weeks old) were immunized with OVA (10 μg/mouse i.p.) on days 0 and 7. In order to elicit a local inflammatory response in the lung, mice were repeatedly challenged between days 13-15 with a nebulised solution of ovalbumin (10 mg/mL, 30 min exposure, De Vilibiss Ultraneb 2000). On day 17 each animal received via intra-tracheal administration of either vehicle or test compound 2 hr prior to the final OVA challenge. Animals were anaesthetized 8 hr later before undergoing a tracheotomy. BAL was obtained by instilling PBS (1 mL) into the lungs, which was then withdrawn. This procedure was repeated to provide approximately 2 mL of lavage fluid. Total cell numbers in the BALF samples were measured using a haemocytometer. Cytospin smears of the BALF samples were prepared by centrifugation at 200 rpm for 5 min at RT and stained using a DiffQuik stain system (Dade Behring) for differential cell counts. Cells were counted using oil immersion microscopy. Data is expressed as differential number of cells per mL of […] (mean±S.E.M).

[6] = tested on: d-U937 cells; assay: MTT assay, cell viability; format: cell-based, human
Description: PMA-differentiated U937 cells were pre-incubated with test compound (10 μg/mL) or vehicle for 4 hr in 5% FCS or 10% FCS for 24 hr. The supernatant was replaced with new media (200 μL) and MTT stock solution (10 μL, 5 mg/mL) was added to each well. After 1 hr incubation, the media were removed, 200 μL of DMSO was added to each well and the plates were shaken lightly for 1 hr prior to reading the absorbance at 550 nm. The percentage loss of cell viability was calculated for each well relative to vehicle (0.5% DMSO)-treatment.

With `COCCOCCOCC#Cc1cccc2nc(Cn3nc(-c4cc(O)cc(F)c4)c4c(N)ncnc43)n(Cc3ccccc3C(F)(F)F)c(=O)c12` [Compound (I), 2-((4-Amino-3-(3-fluoro-5-hydroxyphenyl)-1H-pyrazolo[3,4-d]pyrimidin-1-yl)methyl)-5-(3-(2-(2-methoxyethoxy)ethoxy)prop-1-yn-1-yl)-3-(2-(trifluoromethyl)benzyl)quinazolin-4(3H)-one] the “% inhibition of neutrophil numbers in BALF” value ([1]; 0.05 mg/mL, pre-dose 2 hr) was 9%, the “Neutrophil numbers in BALF” value ([1]; 0.05 mg/mL, pre-dose 2 hr) was 13.2 ± 2.3 x10^5/mL and the “% inhibition of neutrophil numbers in BALF” value ([1]; 0.2 mg/mL, pre-dose 2 hr) was 58%. The “Neutrophil numbers in BALF” value ([1]; 0.2 mg/mL, pre-dose 2 hr) was 6.3 ± 1.6 x10^5/mL, the “% inhibition of neutrophil numbers in BALF” value ([1]; 0.2 mg/mL, pre-dose 8 hr) was 33% and the “Neutrophil numbers in BALF” value ([1]; 0.2 mg/mL, pre-dose 8 hr) was 10.1 ± 1.8 x10^5/mL. For the same molecule, the “% inhibition of neutrophil numbers in BALF” value ([1]; 0.2 mg/mL, pre-dose 12 h) was 10%, the “Neutrophil numbers in BALF” value ([1]; 0.2 mg/mL, pre-dose 12 h) was 13.6 ± 2.7 x10^5/mL and the “% inhibition of neutrophil numbers in BALF” value ([1]; 1.0 mg/mL, pre-dose 2 hr) was 73%. The “Neutrophil numbers in BALF” value ([1]; 1.0 mg/mL, pre-dose 2 hr) was 4.1 ± 0.7 x10^5/mL, the IC50 ([2]; read-out: IC50 Values for PI3K inhibition at isozyme indicated, PI3K γ) was 28 nM and the IC50 ([2]; read-out: PI3 Kinase Inhibition IC50 value at state isozyme, γ) was 28 nM. For the same molecule, the “inhibitory activity versus PI3K α in enzyme assays (in words)” value [3] was “no inhibitory activity”, the IC50 ([3]; read-out: IC50 Values for PI3K inhibition at isozyme indicated, PI3K α) was greater than 13900 nM and the IC50 ([3]; read-out: PI3 Kinase Inhibition IC50 value at state isozyme, α) was greater than 13900 nM. For the same molecule, the IC50 ([4]; read-out: IC50 Values for PI3K inhibition at isozyme indicated, PI3K δ) was 2.5 nM, the IC50 ([4]; read-out: PI3 Kinase Inhibition IC50 value at state isozyme, δ) was 2.5 nM and the “% inhibition, Eosinophils in BALF” value ([5]; 0.05 mg/mL) was 20%. The “% inhibition, Neutrophils in BALF” value ([5]; 0.05 mg/mL) was 18%, the “Cell numbers in BALF, Eosinophils” value ([5]; 0.05 mg/mL) was 19.7 ± 3.2 x10^4/mL and the “Cell numbers in BALF, Neutrophils” value ([5]; 0.05 mg/mL) was 8.0 ± 0.4 x10^4/mL. For the same molecule, the “% inhibition, Eosinophils in BALF” value ([5]; 0.2 mg/mL) was 85%, the “% inhibition, Neutrophils in BALF” value ([5]; 0.2 mg/mL) was 70% and the “Cell numbers in BALF, Eosinophils” value ([5]; 0.2 mg/mL) was 3.8 ± 0.9 x10^4/mL. For the same molecule, the “Cell numbers in BALF, Neutrophils” value ([5]; 0.2 mg/mL) was 2.9 ± 0.5 x10^4/mL, the “% inhibition, Eosinophils in BALF” value ([5]; 1 mg/mL) was 91% and the “% inhibition, Neutrophils in BALF” value ([5]; 1 mg/mL) was 80%. The “Cell numbers in BALF, Eosinophils” value ([5]; 1 mg/mL) was 2.1 ± 0.4 x10^4/mL, the “Cell numbers in BALF, Neutrophils” value ([5]; 1 mg/mL) was 2.0 ± 0.3 x10^4/mL and the “effects on cell viability (in words)” value [6] was “No effects”. For the same molecule, the “Cell Viability MTT Assay in d-U937 cells at 4 hr” value ([6]; 10 μg/mL, 4 hr) was “−ve (−ve indicates a value of <30% inhibition at 10 μg/mL)” and the “Cell Viability MTT Assay in d-U937 cells at 24 hr” value ([6]; 10 μg/mL, 24 hr) was “−ve (−ve indicates a value of <30% inhibition at 10 μg/mL)”.
